Results reported in PubChem BioAssay (NCI).
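Grown in 96-well plates, cells were treated for 48 hours with each compound at five concentrations. Insufficient inhibition: endpoint recorded as highest concentration tested. Definition used: TGI = concentration required for complete inhibition of growth.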

How the values were obtained:
Assay in all cases: NCI-60 cell line screen, 48 h
786-0 renal = system: 786-0 renal
A498 renal = system: A498 renal
A549 NSCLC = system: A549 NSCLC
ACHN renal = system: ACHN renal
CAKI-1 renal = system: CAKI-1 renal
COLO 205 colon = system: COLO 205 colon
DLD-1 colon = system: DLD-1 colon
DMS 114 small cell lung = system: DMS 114 small cell lung
DMS 273 small cell lung = system: DMS 273 small cell lung
EKVX NSCLC = system: EKVX NSCLC
HCC-2998 colon = system: HCC-2998 colon
HCT-116 colon = system: HCT-116 colon
HCT-15 colon = system: HCT-15 colon
HOP-18 NSCLC = system: HOP-18 NSCLC
HOP-62 NSCLC = system: HOP-62 NSCLC
HOP-92 NSCLC = system: HOP-92 NSCLC
HT29 colon = system: HT29 colon
IGROV1 ovarian = system: IGROV1 ovarian
K-562 leukemia = system: K-562 leukemia
KM12 colon = system: KM12 colon
LOX IMVI melanoma = system: LOX IMVI melanoma
M14 melanoma = system: M14 melanoma
M19-MEL melanoma = system: M19-MEL melanoma
NCI-H226 lung = system: NCI-H226 lung
NCI-H23 lung = system: NCI-H23 lung
NCI-H460 lung = system: NCI-H460 lung
OVCAR-3 ovarian = system: OVCAR-3 ovarian
OVCAR-4 ovarian = system: OVCAR-4 ovarian
OVCAR-5 ovarian = system: OVCAR-5 ovarian
OVCAR-8 ovarian = system: OVCAR-8 ovarian
RPMI-8226 leukemia = system: RPMI-8226 leukemia
RXF 393 renal = system: RXF 393 renal
RXF-631 renal = system: RXF-631 renal
SF-268 CNS = system: SF-268 CNS
SF-295 CNS = system: SF-295 CNS
SF-539 CNS = system: SF-539 CNS
SK-MEL-2 melanoma = system: SK-MEL-2 melanoma
SK-MEL-28 melanoma = system: SK-MEL-28 melanoma
SK-MEL-5 melanoma = system: SK-MEL-5 melanoma
SK-OV-3 ovarian = system: SK-OV-3 ovarian
SN12C renal = system: SN12C renal
SNB-19 CNS = system: SNB-19 CNS
SNB-75 CNS = system: SNB-75 CNS
SNB-78 CNS = system: SNB-78 CNS
SW-620 colon = system: SW-620 colon
TK-10 renal = system: TK-10 renal
U251 CNS = system: U251 CNS
UACC-257 melanoma = system: UACC-257 melanoma
UACC-62 melanoma = system: UACC-62 melanoma
UO-31 renal = system: UO-31 renal
CCRF-CEM leukemia = system: CCRF-CEM leukemia
HL-60(TB) leukemia = system: HL-60(TB) leukemia
KM20L2 colon = system: KM20L2 colon
MALME-3M melanoma = system: MALME-3M melanoma
MOLT-4 leukemia = system: MOLT-4 leukemia
NCI-H522 lung = system: NCI-H522 lung
SR leukemia = system: SR leukemia
XF 498 CNS = system: XF 498 CNS

Cc1cccc(-c2nc3c(C(=O)NCCN(C)C)cccc3[nH]2)c1
TGI (786-0 renal): 7.88 µM | TGI (A498 renal): 3.34 µM | TGI (A549 NSCLC): 7.7 µM | TGI (ACHN renal): 8.46 µM | TGI (CAKI-1 renal): 10.3 µM | TGI (COLO 205 colon): 1.56 µM | TGI (DLD-1 colon): 7.95 µM | TGI (DMS 114 small cell lung): 2.51 µM | TGI (DMS 273 small cell lung): 1.59 µM | TGI (EKVX NSCLC): 3.5 µM | TGI (HCC-2998 colon): 1.95 µM | TGI (HCT-116 colon): 1.55 µM | TGI (HCT-15 colon): 2.2 µM | TGI (HOP-18 NSCLC): 4.85 µM | TGI (HOP-62 NSCLC): 3.46 µM | TGI (HOP-92 NSCLC): 3.46 µM | TGI (HT29 colon): 3.48 µM | TGI (IGROV1 ovarian): 4.06 µM | TGI (K-562 leukemia): > 100 µM | TGI (KM12 colon): 4 µM | TGI (LOX IMVI melanoma): 2 µM | TGI (M14 melanoma): 2.98 µM | TGI (M19-MEL melanoma): 3.03 µM | TGI (NCI-H226 lung): 3.89 µM | TGI (NCI-H23 lung): 2.26 µM | TGI (NCI-H460 lung): 5.99 µM | TGI (OVCAR-3 ovarian): 6.55 µM | TGI (OVCAR-4 ovarian): 3.64 µM | TGI (OVCAR-5 ovarian): 4.14 µM | TGI (OVCAR-8 ovarian): 7.02 µM | TGI (RPMI-8226 leukemia): 9.49 µM | TGI (RXF 393 renal): 2.47 µM | TGI (RXF-631 renal): 2.16 µM | TGI (SF-268 CNS): 5.28 µM | TGI (SF-295 CNS): 3.9 µM | TGI (SF-539 CNS): 2.04 µM | TGI (SK-MEL-2 melanoma): 3.26 µM | TGI (SK-MEL-28 melanoma): 3.46 µM | TGI (SK-MEL-5 melanoma): 3 µM | TGI (SK-OV-3 ovarian): 6.07 µM | TGI (SN12C renal): 3.2 µM | TGI (SNB-19 CNS): 7.68 µM | TGI (SNB-75 CNS): 3.73 µM | TGI (SNB-78 CNS): 14.6 µM | TGI (SW-620 colon): 1.91 µM | TGI (TK-10 renal): 4.95 µM | TGI (U251 CNS): 5.77 µM | TGI (UACC-257 melanoma): 3.08 µM | TGI (UACC-62 melanoma): 3.2 µM | TGI (UO-31 renal): 5.05 µM

CCOC(=O)CC(=O)Sc1ccccc1
TGI (786-0 renal): 37 µM | TGI (A498 renal): 57.4 µM | TGI (A549 NSCLC): 60.6 µM | TGI (ACHN renal): 65.7 µM | TGI (CCRF-CEM leukemia): 51.3 µM | TGI (COLO 205 colon): 52.9 µM | TGI (DLD-1 colon): 53.6 µM | TGI (DMS 114 small cell lung): 32 µM | TGI (DMS 273 small cell lung): 46 µM | TGI (EKVX NSCLC): 74 µM | TGI (HCC-2998 colon): 96 µM | TGI (HCT-116 colon): 26.8 µM | TGI (HL-60(TB) leukemia): 48.6 µM | TGI (HOP-18 NSCLC): > 100 µM | TGI (HOP-62 NSCLC): 65.6 µM | TGI (HOP-92 NSCLC): 89.5 µM | TGI (HT29 colon): 48.7 µM | TGI (IGROV1 ovarian): 26 µM | TGI (K-562 leukemia): 58.7 µM | TGI (KM12 colon): > 100 µM | TGI (KM20L2 colon): 47.5 µM | TGI (LOX IMVI melanoma): 26.8 µM | TGI (M14 melanoma): 31.7 µM | TGI (M19-MEL melanoma): 48.4 µM | TGI (MALME-3M melanoma): > 100 µM | TGI (MOLT-4 leukemia): 72.6 µM | TGI (NCI-H226 lung): 58.4 µM | TGI (NCI-H23 lung): 70.7 µM | TGI (NCI-H460 lung): 73.8 µM | TGI (NCI-H522 lung): 24.3 µM | TGI (OVCAR-3 ovarian): 42.7 µM | TGI (OVCAR-4 ovarian): > 100 µM | TGI (OVCAR-5 ovarian): > 100 µM | TGI (OVCAR-8 ovarian): 34.6 µM | TGI (RPMI-8226 leukemia): 51 µM | TGI (RXF 393 renal): 25.9 µM | TGI (SF-268 CNS): 23.1 µM | TGI (SF-295 CNS): 86.5 µM | TGI (SF-539 CNS): 28.6 µM | TGI (SK-MEL-2 melanoma): 67.9 µM | TGI (SK-MEL-28 melanoma): 35 µM | TGI (SK-MEL-5 melanoma): 58.5 µM | TGI (SK-OV-3 ovarian): 49.3 µM | TGI (SN12C renal): 24.6 µM | TGI (SNB-19 CNS): > 100 µM | TGI (SR leukemia): 58.1 µM | TGI (SW-620 colon): 39.4 µM | TGI (TK-10 renal): > 100 µM | TGI (U251 CNS): 40.2 µM | TGI (UACC-257 melanoma): 91.4 µM | TGI (UACC-62 melanoma): 30.7 µM | TGI (UO-31 renal): 28.4 µM | TGI (XF 498 CNS): 93.4 µM
